# Test results from patent US5491137A, “14α17α-(Propano-and 17^2 propeno) -estratrienes” (Schering Aktiengesellschaft, priority 1991, dated 1996).
# Experiments:
# [1] = system: vaginal epithelium; test: Allen-Doisy test (vaginal smears in ovariectomized rats); assay type: in vivo; conditions: single administration day 1, smears days 3-5, threshold = amount at which 50% of animals reach stage 3 (estrus)
# Procedure: In the Allen-Doisy test, an evaluation of vaginal smears in ovariectomized rats is performed on days 3-5 (d3-d5) after the one-time administration on day 1 (d1 ) of the test substance. The following cycle stages are distinguished:
# 1=diestrus (leukocytes and nucleated epithelial cells),
# 2=proestrus (nucleated epithelial cells),
# 3=estrus (denucleated horny plaques),
# 4=metestrus (denucleated horny plaques, leukocytes, epithelial cells).
# After oral or subcutaneous administration, estrogenically active substances result in the proliferation of the vaginal epithelium and the hornification of superficial cell layers. Regarded as a threshold value, is the amount of an estrogen at which 50% of the animals reach stage 3. Further, estrogens cause an increase of the uterus weight.
# [2] = system: Estrogen Receptor; test: Estrogen Receptor Test; assay type: binding; conditions: KF not defined in the patent
Compound,Allen-Doisy Test p.o. [ED50] [1],Allen-Doisy Test s.c. [ED50] [1],Estrogen Receptor Test [KF] [2]
C#C[C@]1(O)CC[C@H]2[C@@H]3CCc4cc(O)ccc4[C@H]3CC[C@@]21C [Ethinylestradiol],3.0 μg/Tier/Tag,0.1-0.3 μg/Tier/Tag,0.5
"C[C@]12CC[C@@H]3c4ccc(O)cc4CC[C@H]3[C@@]13C=CC[C@]2(O)CC3 [14α,17α-(17^2 -Propeno)estra-1,3,5(10)-triene-3,17β-diol]",< 1 μg/Tier/Tag,"0,1-0,3 μg/Tier/Tag","0,4"
